Values after ≈ are worked out from the molar mass of the structure shown.
How the values were obtained:
Assay type in all cases: functional, cell-based
[1] = Cytotoxicity against human vincristine-sensitive KB/S cells
[2] = Cytotoxicity against human vincristine-resistant KB/VJ300 cells
[3] = Cytotoxicity against human vincristine-resistant KB/VJ300 cells in presence of vincristine

| SMILES | IC50 [1] [µg/mL] | IC50 [2] [µg/mL] | IC50 [3] [µg/mL] |
| --- | --- | --- | --- |
| COC(=O)C1=C2Nc3ccccc3[C@@]23CCN2C[C@H]([C@@H](C)O)[C@@H]1C[C@H]23 | > 25 | > 25 | 5.12 |
| COC(=O)C1=C2Nc3ccccc3[C@@]23CCN2C[C@H]([C@H](C)O)[C@@H]1C[C@H]23 | > 25 | > 25 | 8.35 |
| COC(=O)C1=C2Nc3c(OC)cccc3[C@@]23CCN2C[C@H]([C@@H](C)O)[C@@H]1C[C@H]23 | > 25 | > 25 | 10.6 |
| C=C[C@@]12CNCC[C@@H]1[C@](C(=O)OC)(c1cc3ccccc3[nH]1)CO2 | > 25 | > 25 | > 25 |
| C/C=C1/CN2CC[C@]34C(=C(C(=O)OC)[C@H]1C[C@H]23)Nc1ccccc14 [AKUAMMICINE] | > 25 | > 25 | 12.3 |
| C=C[C@@]12CN(C(=O)OCC)CC[C@@H]1[C@](C(=O)OC)(c1cc3ccccc3[nH]1)CO2 [ALSTOLOBINE A] | > 25 | > 25 | 3.51 |
| CCOC(=O)O[C@H](C)[C@H]1CN2CC[C@]34C(=C(C(=O)OC)[C@H]1C[C@H]23)Nc1ccccc14 [ALSTOLUCINE A] | > 25 | > 25 | 0.59 |
| COC(=O)C1=C2Nc3ccccc3[C@@]23CCN2C[C@@H](C(C)=O)[C@@H]1C[C@H]23 [ALSTOLUCINE B] | > 25 | > 25 | 0.64 |
| COC(=O)C1=C2Nc3ccccc3[C@@]23CC[N+]2([O-])C[C@@H](C(C)=O)[C@@H]1C[C@@H]32 (some centres not stated) [ALSTOLUCINE C] | > 25 | > 25 | > 25 |
| COC(=O)C1=C2Nc3c(O)cccc3[C@@]23CCN2C[C@@H](C(C)=O)[C@@H]1C[C@H]23 [ALSTOLUCINE D] | > 25 | > 25 | 10.3 |
| COC(=O)C1=C2Nc3c(O)cccc3[C@@]23CCN2C[C@H](C(C)=O)[C@@H]1C[C@H]23 [ALSTOLUCINE E] | > 25 | > 25 | 19.2 |
| COC(=O)C1=C2Nc3ccccc3[C@@]23CCN2C[C@H](C(C)=O)[C@@H]1C[C@H]23 [ALSTOLUCINE F] | > 25 | > 25 | 2.61 |
| COC(=O)C1=C2Nc3c(O)cccc3[C@@]23CCN2C[C@@H]([C@H](C)O)[C@@H]1C[C@H]23 [SCHOLARICINE] | > 25 | 13.3 (≈ 37.5 µM) | 1.15 |
| C/C=C1/CN2CC[C@]34C(=C(C(=O)O)[C@H]1C[C@H]23)Nc1ccccc14 [VINERVINE] | > 25 | > 25 | 12.1 |
